Values joined by “and” are separate entries in the source; they are usually repeats but may differ in a detail not shown here. Equal entries are not always repeated. Where two headings read alike, the source gives them in different places.
Columns and labels:
[1] = target: EphB2 (Homo sapiens (Human), UniProt P29323); assay: ActivX kinase profiling; type: binding
[2] = target: T1, ERK5 (Homo sapiens (Human), UniProt Q13164); assay: KiNativ chemical proteomics profiling in HeLa and PC3 cell lysates; type: binding; conditions: read-out: ERK5 inhibition (KiNativ)
Text: Compared with our previously reported ERK5 inhibitor, XMD8-92 (11, S10=0.012, 5/402), compound 26 represents a further improvement in selectivity. […] Compounds 25 and 26 were also profiled against selected panels of kinases in HeLa and PC3 cell lysates using a chemical proteomics approach, KiNativ.

[3] = system: panel of 442 kinases; assay: KINOMEscan selectivity profiling; type: binding; conditions: 10 μM
Text: We assessed the selectivity of this scaffold using the KINOMEscan methodology across a near comprehensive panel of 442 kinases. […]

[4] = target: EphA2 (Homo sapiens (Human), UniProt P29317); assay: In vitro EphA2 kinase assay, Invitrogen EphA2 Z'-LYTE activity assay; type: biochemical
Protocol: Example 13: In Vitro EphA2 Kinase Assay—Invitrogen EphA2 Z′-LYTE Activity Assay
EphA2 kinase assays were performed according to the methods described in Z′-LYTE® Screening Protocol and Assay Conditions at the Life Technologies website (available at http://www.invitrogen.com).

[5] = target: T1, ERK5; conditions: cited from earlier work
[6] = target: LRRK2 (Homo sapiens (Human), UniProt Q5S007); conditions: cited from earlier work
[7] = system: panel of 442 kinases; conditions: cited from earlier work

EphB2, sequence (P29323 19-1055): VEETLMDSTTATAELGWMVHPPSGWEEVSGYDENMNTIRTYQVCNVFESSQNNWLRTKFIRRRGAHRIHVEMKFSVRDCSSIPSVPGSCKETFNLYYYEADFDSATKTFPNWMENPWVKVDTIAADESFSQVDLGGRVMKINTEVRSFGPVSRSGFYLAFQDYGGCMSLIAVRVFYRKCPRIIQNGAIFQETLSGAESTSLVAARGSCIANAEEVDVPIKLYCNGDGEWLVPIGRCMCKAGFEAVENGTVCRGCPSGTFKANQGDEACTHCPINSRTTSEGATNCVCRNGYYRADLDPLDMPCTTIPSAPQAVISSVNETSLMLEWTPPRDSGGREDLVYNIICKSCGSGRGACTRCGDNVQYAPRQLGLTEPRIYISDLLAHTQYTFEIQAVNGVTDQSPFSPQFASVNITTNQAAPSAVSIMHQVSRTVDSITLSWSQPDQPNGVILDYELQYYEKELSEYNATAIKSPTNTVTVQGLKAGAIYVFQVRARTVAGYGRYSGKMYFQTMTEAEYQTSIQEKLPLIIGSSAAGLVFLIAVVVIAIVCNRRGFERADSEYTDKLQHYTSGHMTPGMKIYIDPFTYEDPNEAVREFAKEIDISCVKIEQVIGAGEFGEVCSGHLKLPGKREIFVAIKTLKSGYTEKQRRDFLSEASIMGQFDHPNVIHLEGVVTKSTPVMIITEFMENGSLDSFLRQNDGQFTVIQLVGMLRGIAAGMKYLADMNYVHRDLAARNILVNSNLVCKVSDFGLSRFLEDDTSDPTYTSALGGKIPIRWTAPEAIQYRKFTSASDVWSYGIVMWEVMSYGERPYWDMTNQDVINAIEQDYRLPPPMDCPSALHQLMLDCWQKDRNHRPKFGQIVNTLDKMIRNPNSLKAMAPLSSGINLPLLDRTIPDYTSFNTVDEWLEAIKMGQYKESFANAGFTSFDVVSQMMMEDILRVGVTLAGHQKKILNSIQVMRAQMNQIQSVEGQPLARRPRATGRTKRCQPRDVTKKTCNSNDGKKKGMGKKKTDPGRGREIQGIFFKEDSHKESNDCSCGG
T1 sequence (Q13164 2-816 limits assumed): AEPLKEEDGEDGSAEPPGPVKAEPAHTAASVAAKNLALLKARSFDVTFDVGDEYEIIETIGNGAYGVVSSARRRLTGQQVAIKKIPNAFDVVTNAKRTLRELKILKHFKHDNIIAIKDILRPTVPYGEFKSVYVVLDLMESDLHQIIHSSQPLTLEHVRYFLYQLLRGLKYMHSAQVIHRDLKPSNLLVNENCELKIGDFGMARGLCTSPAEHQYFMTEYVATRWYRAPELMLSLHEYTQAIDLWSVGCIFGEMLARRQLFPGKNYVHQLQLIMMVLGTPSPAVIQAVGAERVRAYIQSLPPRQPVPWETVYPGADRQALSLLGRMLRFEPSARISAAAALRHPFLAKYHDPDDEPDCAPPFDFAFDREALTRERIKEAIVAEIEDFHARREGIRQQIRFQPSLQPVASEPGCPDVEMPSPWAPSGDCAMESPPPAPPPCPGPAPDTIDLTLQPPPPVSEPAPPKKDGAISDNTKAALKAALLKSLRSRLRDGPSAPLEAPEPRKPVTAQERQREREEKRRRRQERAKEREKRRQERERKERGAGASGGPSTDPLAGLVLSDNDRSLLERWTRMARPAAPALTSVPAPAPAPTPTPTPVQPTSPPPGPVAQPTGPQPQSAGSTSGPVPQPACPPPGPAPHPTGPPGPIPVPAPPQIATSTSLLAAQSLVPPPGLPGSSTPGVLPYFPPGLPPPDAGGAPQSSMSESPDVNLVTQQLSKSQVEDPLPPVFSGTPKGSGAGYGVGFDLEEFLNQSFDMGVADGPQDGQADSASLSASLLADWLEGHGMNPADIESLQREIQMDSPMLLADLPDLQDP
EphA2, sequence (P29317 24-976): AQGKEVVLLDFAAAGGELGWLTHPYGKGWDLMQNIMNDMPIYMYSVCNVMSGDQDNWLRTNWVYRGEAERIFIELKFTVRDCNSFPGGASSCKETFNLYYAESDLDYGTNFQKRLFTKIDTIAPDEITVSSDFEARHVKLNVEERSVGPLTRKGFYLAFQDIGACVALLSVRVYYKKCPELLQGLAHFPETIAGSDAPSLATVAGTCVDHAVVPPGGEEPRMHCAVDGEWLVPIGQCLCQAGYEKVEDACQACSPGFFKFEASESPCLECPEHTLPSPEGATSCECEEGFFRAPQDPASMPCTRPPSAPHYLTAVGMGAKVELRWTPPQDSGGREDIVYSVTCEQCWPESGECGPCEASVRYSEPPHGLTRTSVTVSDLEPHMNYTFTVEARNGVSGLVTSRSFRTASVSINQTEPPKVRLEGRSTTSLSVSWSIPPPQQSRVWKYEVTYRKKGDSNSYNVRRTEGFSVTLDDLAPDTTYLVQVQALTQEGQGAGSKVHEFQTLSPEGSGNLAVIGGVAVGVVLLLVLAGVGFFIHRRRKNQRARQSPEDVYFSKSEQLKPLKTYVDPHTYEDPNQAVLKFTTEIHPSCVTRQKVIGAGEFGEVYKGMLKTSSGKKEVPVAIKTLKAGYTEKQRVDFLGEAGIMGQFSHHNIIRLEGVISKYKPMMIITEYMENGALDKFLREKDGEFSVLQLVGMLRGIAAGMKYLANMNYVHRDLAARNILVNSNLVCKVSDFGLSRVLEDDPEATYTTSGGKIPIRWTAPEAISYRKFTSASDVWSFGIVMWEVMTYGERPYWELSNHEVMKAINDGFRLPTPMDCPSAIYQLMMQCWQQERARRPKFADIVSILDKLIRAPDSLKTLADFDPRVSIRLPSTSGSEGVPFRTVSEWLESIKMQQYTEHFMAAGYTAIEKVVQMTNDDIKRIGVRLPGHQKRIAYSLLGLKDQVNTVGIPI

Q: For `COc1cc(N2CCN(C)CC2)ccc1Nc1ncc2c(n1)-c1ccccc1N(C1CCOCC1)C(=O)N2` [AB-1-16], which “ActivX EphB2” value [1] is on record?
A: 7

Q: For `COc1cc(C(=O)N2CCC(N3CCN(C)CC3)CC2)ccc1Nc1ncc2c(n1)-c1ccccc1N(Cc1ccccc1C)C(=O)N2C` [XMD16-125], which “ActivX EphB2” value [1] is on record?
A: 0.9

Q: With `COc1cc(C(=O)N2CCC(N3CCN(C)CC3)CC2)ccc1Nc1ncc2c(n1)-c1ccccc1N(Cc1ccccc1Cl)C(=O)N2C` [XMD16-123-1] as the molecule, how does the “ActivX EphB2” value [1] read?
A: 2.5

Q: With `COc1cc(C(=O)N2CCC(N3CCN(C)CC3)CC2)ccc1Nc1ncc2c(n1)-c1ccccc1N(C)C(=O)N2C` [XMD16-118] as the molecule, how does the “ActivX EphB2” value [1] read?
A: −20.9

Q: For `CN1C(=O)N(Cc2c(Cl)cccc2Cl)c2ccccc2-c2nc(Nc3ccc(N4CCC(O)CC4)cc3)ncc21` [XMD16-122-2], which “ActivX EphB2” value [1] is on record?
A: −5.5

Q: Which inhibition at 10 µM [2] does the source give for `COc1cc(C(=O)N2CCC(N3CCN(C)CC3)CC2)ccc1Nc1ncc2c(n1)N(C1CCCC1)c1ccccc1C(=O)N2C` [Compound 25] here?
A: > 90%

Q: And the “KINOMEscan selectivity score S10” value [3]?
A: 0.018

Q: For `COc1cc(C(=O)N2CCC(N3CCN(C)CC3)CC2)ccc1Nc1ncc2c(n1)-c1ccccc1N(C1CCOCC1)C(=O)N2` [XMD16-128], which “ActivX EphB2” value [1] is on record?
A: 4.5

Q: What about the “EphA2 Activity (% Inhibition at 10 micromolar)” value [4] of the same molecule?
A: −5.1% and −8.2%

Q: With `O=C1Nc2cnc(Nc3ccc(N4CCC(O)CC4)cc3)nc2-c2ccccc2N1C1CCCC1` [AB-1-17] as the molecule, how does the “ActivX EphB2” value [1] read?
A: 21.5

Q: Which “ActivX EphB2” value [1] does the source give for `COc1cc(N2CCN(C)CC2)ccc1Nc1ncc2c(n1)-c1ccccc1N(C1CCCC1)C(=O)N2` [AB-1-15] here?
A: 5.2

Q: For `O=C1Nc2ccccc2-c2nc(Nc3ccc(N4CCC(O)CC4)cc3)ncc2N1` [XMD16-95], which “ActivX EphB2” value [1] is on record?
A: 97.2

Q: Which “ActivX EphB2” value [1] does the source give for `COc1cc(C(=O)N2CCC(N3CCN(C)CC3)CC2)ccc1Nc1ncc2c(n1)-c1ccccc1NC(=O)N2` [XMD16-120] here?
A: 60.1

Q: With `CN1C(=O)N(Cc2ccccc2Cl)c2ccccc2-c2nc(Nc3ccc(N4CCC(O)CC4)cc3)ncc21` [XMD16-122-1] as the molecule, how does the “ActivX EphB2” value [1] read?
A: −13

Q: For `COc1cc(C(=O)N2CCC(N3CCN(C)CC3)CC2)ccc1Nc1ncc2c(n1)-c1ccccc1N(Cc1ccccc1C)C(=O)N2` [XMD16-121], which “ActivX EphB2” value [1] is on record?
A: 12.2

Q: Which “ActivX EphB2” value [1] does the source give for `O=C1Nc2cnc(Nc3ccc(N4CCC(O)CC4)cc3)nc2-c2ccccc2N1Cc1c(Cl)cccc1Cl` [XMD16-101-2] here?
A: 0.6

Q: With `CNc1nc(Nc2ccc(C(=O)N3CCOCC3)cc2OC)ncc1Cl` [HG-10-102-01, (4-((5-chloro-4-(methylamino)pyrimidin-2-yl)amino)-3-methoxyphenyl)(morpholino)methanone] as the molecule, how does the “ERK5 inhibition as reported” value [5] read?
A: do not inhibit ERK5

Q: And the “LRRK2 inhibition as reported” value [6]?
A: potent LRRK2 inhibitors

Q: With XMD8-92 as the molecule, how does the “KINOMEscan selectivity score S10” value ([7]; previously reported, 5/402 kinases) read?
A: 0.012

Q: For `O=C(Nc1cccnc1)c1cc(-c2ccnc(F)c2)ccc1OCc1ccccc1` [GSK2578215A, 2-arylmethyloxy-5-subtitutent-N-arylbenzamide], which “ERK5 inhibition as reported” value [5] is on record?
A: do not inhibit ERK5

Q: What about the “LRRK2 inhibition as reported” value [6] of the same molecule?
A: potent LRRK2 inhibitors

Q: With `COc1cc(C(=O)N2CCC(N3CCN(C)CC3)CC2)ccc1Nc1ncc2c(n1)N(C)c1ccccc1C(=O)N2C` [LRRK2-IN-1] as the molecule, how does the “KINOMEscan selectivity score S10” value ([7]; previous LRRK2 inhibitor, 16/442) read?
A: 0.036

Q: What does the source list for `COc1cc(C(=O)N2CCC(N3CCN(C)CC3)CC2)ccc1Nc1ncc2c(n1)-c1ccccc1N(C1CCCC1)C(=O)N2` [XMD16-127]?
A: ActivX EphB2 [1]: 2; EphA2 Activity (% Inhibition at 10 micromolar) [4]: −1.1% and −10.5%

Q: With `CN1C(=O)N(C2CCCC2)c2ccccc2-c2nc(Nc3ccc(N4CCC(O)CC4)cc3)ncc21` [AB-1-24] as the molecule, how does the “ActivX EphB2” value [1] read?
A: 6.8

Q: With `O=C1Nc2cnc(Nc3ccc(N4CCC(O)CC4)cc3)nc2-c2ccccc2N1Cc1ccccc1Cl` [XMD16-101-1] as the molecule, how does the “ActivX EphB2” value [1] read?
A: 6.1

Source: US9676792B2, “Pyrimido-diazepinone compounds and methods of treating disorders” (Dana-Farber Cancer Institute, Inc., priority 2013, dated 2017)
